Data published in patent US6939668B2, “Compositions and methods for treatment of lung transplants” (priority 2001, dated 2005).

Columns and labels:
Type in all cases: cell-based
B. cepacia [1] = experiment: B. cepacia binding to normal human bronchial epithelial (NHBE) cells; conditions: for % Binding of control / % Inhibition: NHBE cells, mean of 4 experiments (range)
Procedure: Normal human bronchial epithelial (NHBE) cells were grown in 48 well plates. […] Unbound bacteria were removed by washing 6 times with PBS and the bound bacteria were desorbed in 1 ml of 0.5% triton X-100 and quantitated by dilution plating. Results are shown in Table 3 and represent the mean of 4 independent experiments and the values in parenthesis represent the range of experimental values.

B. cepacia [2] = experiment: Effect of dextrans and xylitol on the viability of B. cepacia; conditions: 60 to 80 mg/ml, 2 h, compared to BEGM alone
Procedure: Explants were obtained from lungs removed from donors for transplantation. All lungs were preserved using LPD lung preservation solution (Perfadex®, Vitrolife, Gotenberg, Sweden) (Fischer et al. (2001), J. Thorac. Cardiovasc. Surg., v. 121, pp. 594-596). Segments of donor trachea that were trimmed off the lung before implantation were used in this study. Airway explants were prepared from donor tracheal segments, which were cut into approximately 4×4 mm^2 pieces, placed in transwells with the epithelial surface facing up and maintained in BEGM at an air/liquid interface for a maximum of 24 h at 37° C., 5% CO2. […] Five micron thick sections were stained with hematoxylin and eosin and examined under a light microscope (Leica, Scarborough, ON). • Effect of dextrans and xylitol on the viability of B. cepacia: B. cepacia (10^7 cfu) was suspended in BEGM containing 0, 2, 4, 6, 7 or 8% of dextran or xylitol for 2 h and then the number of viable bacteria was determined by colony counting method. • Binding of B. cepacia to airway explants: B. cepacia suspended in PBS (5 μl containing 10^8 cfu) was added in the center of the epithelial surface of airway explants and incubated for 2 h at 37° C., 5% CO2. […] After 72 h of incubation at 37° C., bacterial colonies were counted to determine the number of bacteria (cfu) bound per explant.

[3] = system: B. cepacia ATCC 25416 (genomovar I); experiment: microbe, parasite or virus in culture; set-up: inhibition: dose or concentration left out as unconfirmed
Procedure: (§1) B. cepacia (10^7-10^8 cfu) in 5 μl was added to the epithelial surface of tracheal explants, incubated for 2 h at 37° C. and gently washed with PBS 5 times to remove unbound bacteria.
(§2) Bound bacteria were desorbed with 0.25% triton X-100, serially diluted and plated on B. cepacia isolation agar, and incubated at 37° C. for 72 hours. Colonies were counted to calculate the number of bacteria bound per explant. When inhibitors were used, explants were incubated with inhibitors for 1 hour prior to the addition of bacteria.
(§3) Tracheal explants were preincubated for 1 hour with dextran 4K or 40K or xylitol. Bacteria (10^7 or 10^8 cfu) were then incubated for 2 hours with the tracheal explants and the number of bound bacteria per explant was determined as described above. Bacterial binding to explants preincubated with culture medium alone was considered as 0% inhibition (FIG. 1, each bar represents the mean of 14 to 17 independent experiments using trachea from 5 to 6 donors. Data were analyzed by the mixed model analysis of variance using MIXED procedure in SAS statistical software).
(§4) Explants were obtained from lungs removed from donors for transplantation. All lungs were preserved using LPD lung preservation solution (Perfadex®, Vitrolife, Gotenberg, Sweden) (Fischer et al. (2001), J. Thorac. Cardiovasc. Surg., v. 121, pp. 594-596). Segments of donor trachea that were trimmed off the lung before implantation were used in this study. Airway explants were prepared from donor tracheal segments, which were cut into approximately 4×4 mm^2 pieces, placed in transwells with the epithelial surface facing up and maintained in BEGM at an air/liquid interface for a maximum of 24 h at 37° C., 5% CO2. To evaluate the morphological status of the airway explants at this time, the explants were fixed in 10% buffered formalin and embedded in agar-paraffin. Five micron thick sections were stained with hematoxylin and eosin and examined under a light microscope (Leica, Scarborough, ON). • Effect of dextrans and xylitol on the viability of B. cepacia: B. cepacia (10^7 cfu) was suspended in BEGM containing 0, 2, 4, 6, 7 or 8% of dextran or xylitol for 2 h and then the number of viable bacteria was determined by colony counting method. • Binding of B. cepacia to airway explants: B. cepacia suspended in PBS (5 μl containing 10^8 cfu) was added in the center of the epithelial surface of airway explants and incubated for 2 h at 37° C., 5% CO2. The explants were washed gently 6 times with sterile PBS to remove unbound bacteria, and bound bacteria desorbed by incubating in 1 ml of 0.25% triton X-100 for 10 min at RT. Samples were serially diluted, and plated on B. cepacia isolation agar (Henry et al. (1997), J. Clin. Microbiol., v. 35, pp. 614-619). After 72 h of incubation at 37° C., bacterial colonies were counted to determine the number of bacteria (cfu) bound per explant.
(§5) In inhibition assays, epithelia of airway explants were pre-incubated with varying concentrations of potential inhibitors, dextran (4, 10 or 40 kDa) or xylitol for 1 h at 37° C., then bacteria were added and the assay continued as described above. Controls (no inhibitor added) in each experiment were set to a value of 100% binding, to calculate the % inhibition caused by inhibitors. Statistical analysis was carried out using Statsview and the unpaired student's t-test was used to calculate the p value. • Immunological detection of bound bacteria or mucin in airway explants: Paraffin sections of airway explants incubated with PBS or B. cepacia in presence or absence of inhibitors were deparaffinized, rehydrated and heated under pressure for 1.5 min in 10 mM citrate buffer pH 6.0 (Shi et al. (1991), J. Histochem. Cytochem., v. 39, pp. 741-748) to retrieve antigenic sites.

[4] = system: B. cepacia isolate BC7 (genomovar III); experiment: microbe, parasite or virus in culture; set-up: inhibition: dose or concentration left out as unconfirmed; conditions: for Percent Inhibition of binding to tracheal explants: isolate BC7, genomovar III
Procedure: as §1, §2, §3, §4, §5

[5] = system: B. cepacia CEP040 (genomovar V); experiment: microbe, parasite or virus in culture; set-up: inhibition: dose or concentration left out as unconfirmed
Procedure: as §1, §2, §3, §4, §5

[6] = system: B. cepacia C5393 (genomovar II); experiment: microbe, parasite or virus in culture; set-up: inhibition: dose or concentration left out as unconfirmed
Procedure: as §1, §2, §3, §4, §5

[7] = system: B. cepacia FC473 (genomovar IV); experiment: microbe, parasite or virus in culture; set-up: inhibition: dose or concentration left out as unconfirmed
Procedure: as §1, §2, §3, §4, §5

[8] = Burkholderia cepacia, Epithelial cell, read-out: % Inhibition of B. cepacia isolates binding to tracheal epithelial cells

O=C[C@H](O)[C@@H](O)[C@@H](O)[C@H](O)CO [Galactose]
inhibitory effect on binding of B. cepacia to NHBE cells (B. cepacia [1]; 0 to 1.8%/ml): None of these sugars inhibited the binding

OC[C@@H](O)[C@H](O)[C@@H](O)CO [Xylitol]
% Binding of control (B. cepacia [1]; xylitol 6%): 64 (29-105) %
% Inhibition (B. cepacia [1]; xylitol 6%): 36 (0-71) %
% Binding of control (B. cepacia [1]; xylitol 7%): 56 (54-58) %
% Inhibition (B. cepacia [1]; xylitol 7%): 44 (42-44) %
% Binding of control (B. cepacia [1]; xylitol 8%): 33 (23-43) %
% Inhibition (B. cepacia [1]; xylitol 8%): 67 (57-77) %
% Binding of control (B. cepacia [1]; xylitol 10%): 23 (18-29) %
% Inhibition (B. cepacia [1]; xylitol 10%): 77 (71-82) %
viability of B. cepacia (B. cepacia [2]): no change in viability
inhibition ([3]; Burkholderia cepacia, ATCC25416, Epithelial cell, read-out: % Inhibition of B. cepacia isolates binding to tracheal epithelial cells): 82 ± 1.29%
Percent Inhibition of binding to tracheal explants ([3]; isolate ATCC 25416, genomovar I, inhibitor 8%): 84%
inhibition of binding of BC7 to airway explants (in words) ([4]; 60 to 80 mg/ml, p<0.005 compared to PBS treated controls, FIG. 4b): significantly inhibited the binding
inhibition [4, 8]: 58 ± 10.7%
inhibition at 80000 µg/mL ([4]; Burkholderia cepacia, read-out: inhibition of binding of B. cepacia isolate BC7 to airway explants): 67%
inhibition of B. cepacia BC7 binding to tracheal explants (in words) ([4]; Example 1, FIG. 1, 1 hour preincubation, p value <0.0001): effective in causing inhibition of bacterial binding
Percent Inhibition of binding to tracheal explants ([4]; inhibitor 7%): 76%
Percent Inhibition of binding to tracheal explants ([4]; inhibitor 8%): 81%
inhibition [5, 8]: 70 ± 6.75%
Percent Inhibition of binding to tracheal explants ([5]; isolate CEP040, genomovar V, inhibitor 8%): 64%
inhibition [6, 8]: 70 ± 6.78%
Percent Inhibition of binding to tracheal explants ([6]; isolate C5393, genomovar II, inhibitor 8%): 68%
inhibition [7, 8]: 70 ± 3.26%
Percent Inhibition of binding to tracheal explants ([7]; isolate FC473, genomovar IV, inhibitor 7%): 72%

CC(=O)N[C@H]1[C@H](O[C@H]2[C@H](O)[C@@H](NC(C)=O)[C@H](O[C@H]3[C@H](O)[C@@H](NC(C)=O)C(O)O[C@@H]3CO)O[C@@H]2CO)O[C@H](CO)[C@@H](O[C@@H]2O[C@H](CO)[C@@H](O[C@@H]3O[C@H](CO)[C@@H](O[C@@H]4O[C@H](CO)[C@@H](O)[C@H](O)[C@H]4NC(C)=O)[C@H](O)[C@H]3NC(C)=O)[C@H](O)[C@H]2NC(C)=O)[C@@H]1O (stereo partly shown) [chitohexose]
inhibitory effect on binding of B. cepacia to NHBE cells (B. cepacia [1]; 0-100 μg/ml): None of these sugars inhibited the binding

CC(=O)N[C@@H]1[C@@H](O)[C@H](O[C@@H]2O[C@H](CO)[C@@H](O[C@@H]3O[C@H](CO)[C@@H](O[C@@H]4O[C@H](CO)[C@@H](O[C@@H]5O[C@H](CO)[C@@H](O)[C@H](O)[C@H]5NC(C)=O)[C@H](O)[C@H]4NC(C)=O)[C@H](O)[C@H]3NC(C)=O)[C@H](O)[C@H]2NC(C)=O)[C@@H](CO)O[C@H]1O [chitopentose]
inhibitory effect on binding of B. cepacia to NHBE cells (B. cepacia [1]; 0-100 μg/ml): None of these sugars inhibited the binding

N[C@H]1[C@H](O[C@H]2[C@H](O)[C@@H](N)[C@H](O[C@H]3[C@H](O)[C@@H](N)[C@H](O[C@H]4[C@H](O)[C@@H](N)C(O)O[C@@H]4CO)O[C@@H]3CO)O[C@@H]2CO)O[C@H](CO)[C@@H](O)[C@@H]1O (stereo partly shown) [chitotetraose]
inhibitory effect on binding of B. cepacia to NHBE cells (B. cepacia [1]; 0-100 μg/ml): None of these sugars inhibited the binding

chitobiose
inhibitory effect on binding of B. cepacia to NHBE cells (B. cepacia [1]; 0-100 μg/ml): None of these sugars inhibited the binding
